Laboratory results: PubChem BioAssay AID248 (DTP/NCI, 2004)
Inconclusive results and toxic doses are left out. Cut-off read from the data, not from the text of the source: active = T/C of 150% or more; inactive = T/C below 125%.

System: L1210 leukemia ip in BDF1 mice, survival T/C
Assay: NCI In Vivo Anticancer Drug Screen. Data for tumor model L1210 Leukemia (intraperitoneal) in B6D2F1 (BDF1) mice
Conditions: endpoint: mean survival time, higher = longer survival
How it was run: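 Each compound was tested against a transplantable tumor grown in mice. The endpoint was survival, with treated animals benchmarked against vehicle controls as a simple ratio.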

[1] = dose: 100.0 mg/kg/injection, schedule: Q04DX003 (ip), vehicle: saline with Tween-80
[2] = dose: 200.0 mg/kg/injection, schedule: Q04DX003 (ip), vehicle: saline with Tween-80
[3] = dose: 400.0 mg/kg/injection, schedule: Q04DX003 (ip), vehicle: saline with Tween-80
[4] = dose: 100.0 mg/kg/injection, schedule: Q01DX009 (ip), vehicle: saline with Tween-80
[5] = dose: 200.0 mg/kg/injection, schedule: Q01DX009 (ip), vehicle: saline with Tween-80

Measured: T/C

C1CSCS1
inactive: dose: 12.5 mg/kg/injection, schedule: Q04DX002 (ip), vehicle: saline with Tween-80 103 % of control | dose: 25.0 mg/kg/injection, schedule: Q04DX002 (ip), vehicle: saline with Tween-80 106 % of control | dose: 50.0 mg/kg/injection, schedule: Q04DX002 (ip), vehicle: saline with Tween-80 106 % of control

O=C(CN1C2CCC1CC(O)C2)NCC1C(c2ccccc2)C1c1ccccc1 (stereo not drawn)
inactive: dose: 25.0 mg/kg/injection, schedule: Q04DX002 (ip), vehicle: Klucel (hydroxypropylcellulose) (HPC) 111 % of control | dose: 50.0 mg/kg/injection, schedule: Q04DX002 (ip), vehicle: Klucel (hydroxypropylcellulose) (HPC) 95 % of control | dose: 100.0 mg/kg/injection, schedule: Q04DX002 (ip), vehicle: Klucel (hydroxypropylcellulose) (HPC) 109 % of control

CNC(=O)C1C2C=CC(CC2)C1C(=O)NC (stereo not drawn)
inactive: [1] 108 % of control | [2] 100 % of control | [3] 100 % of control

Cn1c(/C=C/c2ccccc2)c([N+](=O)[O-])c(=O)n(C)c1=O
inactive: dose: 50.0 mg/kg/injection, schedule: Q01DX009 (ip), vehicle: saline with Tween-80 106 % of control | [4] 98 % of control | [5] 98 % of control

O=C(CSc1ccc([N+](=O)[O-])cc1)c1ccc(Br)cc1
inactive: dose: 100.0 mg/kg/injection, schedule: Q01DX001 (ip), vehicle: saline 87 % of control | dose: 100.0 mg/kg/injection, schedule: Q04DX003 (ip), vehicle: saline 95 % of control | dose: 200.0 mg/kg/injection, schedule: Q01DX001 (ip), vehicle: saline 87 % of control | dose: 200.0 mg/kg/injection, schedule: Q04DX003 (ip), vehicle: saline 90 % of control | dose: 400.0 mg/kg/injection, schedule: Q01DX001 (ip), vehicle: saline 94 % of control | dose: 400.0 mg/kg/injection, schedule: Q04DX003 (ip), vehicle: saline 90 % of control

Cc1cc(C)n2ncnc2n1
inactive: [4] 105 % of control | [5] 99 % of control

CC1C(O)CC2CC1C2(C)C (stereo not drawn)
inactive: dose: 50.0 mg/kg/injection, schedule: Q01DX001 (ip), vehicle: saline with Tween-80 94 % of control | dose: 100.0 mg/kg/injection, schedule: Q01DX001 (ip), vehicle: saline with Tween-80 93 % of control | dose: 200.0 mg/kg/injection, schedule: Q01DX001 (ip), vehicle: saline with Tween-80 102 % of control

O=C(O)CNC(=O)N1CCCC1
inactive: dose: 100.0 mg/kg/injection, schedule: Q04DX002 (ip), vehicle: saline 90 % of control | dose: 200.0 mg/kg/injection, schedule: Q04DX002 (ip), vehicle: saline 96 % of control | dose: 400.0 mg/kg/injection, schedule: Q04DX002 (ip), vehicle: saline 104 % of control

[CeH3]
inactive: dose: 100.0 mg/kg/injection, schedule: Q04DX003 (sc), vehicle: olive oil, sesame oil, peanut oil 98 % of control | dose: 200.0 mg/kg/injection, schedule: Q04DX003 (sc), vehicle: olive oil, sesame oil, peanut oil 108 % of control | dose: 400.0 mg/kg/injection, schedule: Q04DX003 (sc), vehicle: olive oil, sesame oil, peanut oil 91 % of control

CC(C)(Oc1ccc(Cl)cc1)C(=O)NC(N)=O
inactive: dose: 50.0 mg/kg/injection, schedule: Q01DX009 (ip), vehicle: saline 95 % of control | dose: 100.0 mg/kg/injection, schedule: Q01DX009 (ip), vehicle: saline 113 % of control | dose: 200.0 mg/kg/injection, schedule: Q01DX009 (ip), vehicle: saline 103 % of control

CSc1nc(Cl)cc(/N=C/N(C)C)n1
inactive: [1] 95 % of control | [2] 115 % of control | [3] 111 % of control

N/C(=N\O)c1c(N)ncn1C1OC(CO)C(O)C1O (stereo not drawn)
inactive: dose: 100.0 mg/kg/injection, schedule: Q01DX005 (ip), vehicle: saline 97 % of control | dose: 200.0 mg/kg/injection, schedule: Q01DX005 (ip), vehicle: saline 100 % of control

Cc1cc(O)c(N=Nc2ccc(C(=O)O)cc2)cc1C
inactive: dose: 25.0 mg/kg/injection, schedule: Q04DX003 (ip), vehicle: carboxymethylcellulose (CMC) 108 % of control | dose: 50.0 mg/kg/injection, schedule: Q04DX003 (ip), vehicle: carboxymethylcellulose (CMC) 103 % of control | dose: 100.0 mg/kg/injection, schedule: Q01DX001 (ip), vehicle: other 102 % of control | dose: 100.0 mg/kg/injection, schedule: Q04DX003 (ip), vehicle: carboxymethylcellulose (CMC) 101 % of control | dose: 200.0 mg/kg/injection, schedule: Q01DX001 (ip), vehicle: other 96 % of control | dose: 200.0 mg/kg/injection, schedule: Q04DX003 (ip), vehicle: carboxymethylcellulose (CMC) 101 % of control | dose: 400.0 mg/kg/injection, schedule: Q01DX001 (ip), vehicle: other 93 % of control | dose: 400.0 mg/kg/injection, schedule: Q04DX003 (ip), vehicle: carboxymethylcellulose (CMC) 95 % of control

CCCCCCCCCCCCCCCC[N+](C)(C)c1nc(Cl)nc(Cl)n1
inactive: dose: 3.75 mg/kg/injection, schedule: Q01DX009 (ip), vehicle: saline 102 % of control | dose: 7.5 mg/kg/injection, schedule: Q01DX009 (ip), vehicle: saline 97 % of control | dose: 15.0 mg/kg/injection, schedule: Q01DX009 (ip), vehicle: saline 96 % of control | dose: 30.0 mg/kg/injection, schedule: Q01DX009 (ip), vehicle: saline 96 % of control | dose: 37.5 mg/kg/injection, schedule: Q04DX003 (ip), vehicle: saline 102 % of control | dose: 50.0 mg/kg/injection, schedule: Q01DX001 (ip), vehicle: water 105 % of control | dose: 75.0 mg/kg/injection, schedule: Q04DX003 (ip), vehicle: saline 102 % of control | dose: 100.0 mg/kg/injection, schedule: Q01DX001 (ip), vehicle: water 100 % of control

Nc1ccc(C(=O)O)c(C(=O)O)c1
inactive: [4] 101 % of control | dose: 100.0 mg/kg/injection, schedule: Q04DX003 (ip), vehicle: Klucel (hydroxypropylcellulose) (HPC) 100 % of control | [5] 91 % of control | dose: 200.0 mg/kg/injection, schedule: Q04DX003 (ip), vehicle: Klucel (hydroxypropylcellulose) (HPC) 98 % of control | dose: 400.0 mg/kg/injection, schedule: Q04DX003 (ip), vehicle: Klucel (hydroxypropylcellulose) (HPC) 102 % of control
